The results in this text go back to patent EP2818471A1, “Nitrogen bicyclic compounds as inhibitors for Scyl1 and Grk5” (Max-Planck-Gesellschaft zur Förderung der Wissenschaften …, priority 2013, dated 2014).

Some results are limits rather than exact numbers.

In the assay the test system is beta-TC6 cells. Put plainly: Insulin HTRF assay, relative activity Ar normalized to sunitinib. Format: cell-based. To be noted: Mus musculus, normalized to positive control sunitinib (5 µM = 100%), Table 10. In outline: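 Relative activity Ar was scaled between 0% and 100% controls, with sunitinib at 5 µM f.c. as reference. Insulin released by beta-TC6 cells was quantified by sandwich HTRF (Eu-cryptate/XL665 antibodies, 120 min RT). Cells had been seeded 24 or 48 h, then treated 2–4 h at 37°C in induction buffer, 0.5% DMSO.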
As for `OCc1cccc(-c2cnc3cnc(-c4ccccc4)cn23)c1` [compound 376, [3-(6-phenylimidazo[1,2-a]pyrazin-3-yl)phenyl]methanol], the Emax was 20 to 50%.

Compound `CCOc1cccc(-c2cn3c(-c4ccc(CCC(=O)O)cc4)cnc3cn2)c1` [compound 328, 3-[4-[6-(3-ethoxyphenyl)imidazo[1,2-a]pyrazin-3-yl]phenyl]propanoic acid] gave a maximal response (Emax) of at least 100%.

`Cc1ccccc1-c1cnc2cnc(-c3cccs3)cn12` [compound 405, 3-(o-tolyl)-6-(2-thienyl)imidazo[1,2-a]pyrazine]: the maximal response (Emax) fell in the range of 10 to 20%.

Compound `CN(C)CCCNC(=O)c1ccc(-c2cn3c(-c4ccc(N(C)C)cc4)cnc3cn2)cc1` [compound 285, 4-[3-(4-dimethylaminophenyl)imidazo[1,2-a]pyrazin-6-yl]-N-[3-(dimethylamino)propyl]benzamide] displayed a maximal effect (Emax) of 50 to 100%.

Regarding `N#Cc1ccc(-c2cnc3cnc(-c4ccc(CO)cc4)cn23)cc1` [compound 338, 4-[6-[4-(hydroxymethyl)phenyl]imidazo[1,2-a]pyrazin-3-yl]benzonitrile], the maximal effect (Emax) lay within 20 to 50%.

Regarding `COc1ccc(-c2nnc3ccc(-c4cccc(F)c4)cn23)cc1OC` [compound 187, 3-(3,4-dimethoxyphenyl)-6-(3-fluorophenyl)-[1,2,4]triazolo[4,3-a]pyridine], the maximum response (Emax) is at least 100%.

`Oc1cccc(-c2cnc3ccc(-c4ccc(F)cc4)nn23)c1` [compound 127, 3-[6-(4-fluorophenyl)imidazo[1,2-b]pyridazin-3-yl]phenol]: the maximal response (Emax) fell in the range of 20 to 50%.

The compound `CC(=O)Nc1cccc(-c2cnc3ccc(NCc4ccc(F)cc4)nn23)c1` [compound 19, N-[3-[6-[(4-fluorophenyl)methylamino]imidazo[1,2-b]pyridazin-3-yl]phenyl]acetamide] came in with an Emax of 10 to 20%.

Compound `CN(C)c1ccc(-c2cnc3cnc(-c4ccc(NCCN5CCOCC5)nc4)cn23)cc1` [compound 282, 5-[3-(4-dimethylaminophenyl)imidazo[1,2-a]pyrazin-6-yl]-N-(2-morpholinoethyl)pyridin-2-amine] yielded an Emax of 50 to 100%.

For the compound `CC(=O)Nc1ccc(-c2cnc3ccc(-c4ccc(N5CCOCC5)cc4)nn23)cc1` [compound 147, N-[4-[6-(4-morpholinophenyl)imidazo[1,2-b]pyridazin-3-yl]phenyl]acetamide], the Emax was at least 100%.

The compound `CC(=O)c1ccc(-c2cnc3cccnn23)cc1` [compound 87, 1-(4-imidazo[1,2-b]pyridazin-3-ylphenyl)ethanone] gave an Emax of 10 to 20%.

Regarding `Fc1cccc(-c2cn3c(-c4ccccc4)cnc3cn2)c1` [compound 297, 6-(3-fluorophenyl)-3-phenyl-imidazo[1,2-a]pyrazine], the Emax fell in the range of 20 to 50%.

Consider `CN1CCN(C(=O)c2cccc(-c3cnc4cnc(-c5ccc6c(c5)OCO6)cn34)c2)CC1` [compound 355, [3-[6-(1,3-benzodioxol-5-yl)imidazo[1,2-a]pyrazin-3-yl]phenyl]-(4-methylpiperazin-1-yl)methanone], for which the maximal effect (Emax) was in the range of 20 to 50%.

Compound `COc1cc(-c2cnc3cnc(-c4ccc(OCCCN(C)C)nc4)cn23)ccc1O` [compound 391, 4-[6-[6-[3-(dimethylamino)propoxy]-3-pyridyl]imidazo[1,2-a]pyrazin-3-yl]-2-methoxy-phenol] showed an Emax of 20 to 50%.

`Clc1ccc(-c2cnc3cnc(-c4ccsc4)cn23)cc1` [compound 348, 3-(4-chlorophenyl)-6-(3-thienyl)imidazo[1,2-a]pyrazine] gave an Emax of 50 to 100%.

Regarding `c1csc(-c2cn3c(-c4ccsc4)cnc3cn2)c1` [compound 322, 6-(2-thienyl)-3-(3-thienyl)imidazo[1,2-a]pyrazine], the Emax was 50 to 100%.

On to `Fc1cccc(-c2cnc3cnc(-c4ccc5c(c4)OCO5)cn23)c1` [compound 386, 6-(1,3-benzodioxol-5-yl)-3-(3-fluorophenyl)imidazo[1,2-a]pyrazine], for which the maximum response (Emax) was in the range of 20 to 50%.

In turn, `c1cc2cc(-c3ccc4nnc(-c5cscn5)n4c3)ccc2[nH]1` [compound 229, 4-[6-(1H-indol-5-yl)-[1,2,4]triazolo[4,3-a]pyridin-3-yl]thiazole] showed a maximum response (Emax) of 50 to 100%.

`Oc1cccc(-c2cnc3cnc(/C=C/c4ccccc4)cn23)c1` [compound 366, 3-[6-[(E)-styryl]imidazo[1,2-a]pyrazin-3-yl]phenol] yielded an Emax of 20 to 50%.

`CN(C)c1ccc(-c2ccc3nnc(-c4cccnc4)n3c2)cc1` [compound 182, N,N-dimethyl-4-[3-(3-pyridyl)-[1,2,4]triazolo[4,3-a]pyridin-6-yl]aniline] gave a maximum response (Emax) of 50 to 100%.

As for `CC(=O)c1cccc(-c2cnc3cnc(-c4cccc(F)c4)cn23)c1` [compound 410, 1-[3-[6-(3-fluorophenyl)imidazo[1,2-a]pyrazin-3-yl]phenyl]ethanone], the Emax was in the range of 20 to 50%.

In the case of `NC(=O)c1cccc(-c2ccc3nnc(-c4cscn4)n3c2)c1` [compound 230, 3-(3-thiazol-4-yl-[1,2,4]triazolo[4,3-a]pyridin-6-yl)benzamide], the maximal effect (Emax) lay within 20 to 50%.

For `COc1ccc(-c2nnc3ccc(-c4cccc(N(C)C)c4)cn23)cc1OC` [compound 185, 3-[3-(3,4-dimethoxyphenyl)-[1,2,4]triazolo[4,3-a]pyridin-6-yl]-N,N-dimethyl-aniline], the Emax is 50 to 100%.

`COc1ccc(-c2cnc3cnc(-c4ccc(CO)cc4)cn23)cc1` [compound 361, [4-[3-(4-methoxyphenyl)imidazo[1,2-a]pyrazin-6-yl]phenyl]methanol] displayed a maximal response (Emax) of 50 to 100%.

Turning to `CN(C)c1ccccc1-c1cn2c(-c3cccs3)cnc2cn1` [compound 413, N,N-dimethyl-2-[3-(2-thienyl)imidazo[1,2-a]pyrazin-6-yl]aniline], the maximal response (Emax) lay in the range of 20 to 50%.

Compound `CN1CCN(c2ccc(-c3cn4c(-c5ccc(C(=O)N(C)C)cc5)cnc4cn3)cn2)CC1` [compound 429, N,N-dimethyl-4-[6-[6-(4-methylpiperazin-1-yl)-3-pyridyl]imidazo[1,2-a]pyrazin-3-yl]benzamide] displayed a maximal effect (Emax) of 20 to 50%.

In turn, `N#Cc1ccc(-c2ccc3nnc(-c4cccc(O)c4)n3c2)cc1` [compound 206, 4-[3-(3-hydroxyphenyl)-[1,2,4]triazolo[4,3-a]pyridin-6-yl]benzonitrile] had a maximal response (Emax) of 50 to 100%.

As to `Cc1cc(-c2cn3c(-c4ccc5ncccc5c4)cnc3cn2)cc(C)c1O` [compound 442, 2,6-dimethyl-4-[3-(6-quinolyl)imidazo[1,2-a]pyrazin-6-yl]phenol], the Emax is 20 to 50%.

With `COc1ccc(-c2cnc3ccc(NCCCO)nn23)cc1` [compound 41, 3-[[3-(4-methoxyphenyl)imidazo[1,2-b]pyridazin-6-yl]amino]propan-1-ol], the Emax was 10 to 20%.

`O=C(NCCO)c1ccc(-c2cn3c(-c4cccs4)cnc3cn2)cc1` [compound 423, N-(2-hydroxyethyl)-4-[3-(2-thienyl)imidazo[1,2-a]pyrazin-6-yl]benzamide]: the Emax lay within 10 to 20%.

Compound `COc1cc(-c2cnc3cnc(-c4ccc(N)nc4)cn23)ccc1O` [compound 396, 4-[6-(6-amino-3-pyridyl)imidazo[1,2-a]pyrazin-3-yl]-2-methoxy-phenol] had an Emax of 20 to 50%.

With `COc1cc(-c2cn3c(-c4ccc5ncccc5c4)cnc3cn2)cc(OC)c1OC` [compound 440, 6-[6-(3,4,5-trimethoxyphenyl)imidazo[1,2-a]pyrazin-3-yl]quinoline], the Emax lay within 20 to 50%.

In turn, `Oc1cccc(-c2ccc3nnc(-c4ccccn4)n3c2)c1` [compound 247, 3-[3-(2-pyridyl)-[1,2,4]triazolo[4,3-a]pyridin-6-yl]phenol] yielded a maximum response (Emax) of 50 to 100%.

`COc1cc(-c2nnc3ccc(-c4ccccc4C)cn23)ccc1O` [compound 218, 2-methoxy-4-[6-(o-tolyl)-[1,2,4]triazolo[4,3-a]pyridin-3-yl]phenol]: the Emax lay within 50 to 100%.

Compound `c1csc(-c2ccc3nnc(-c4ccoc4)n3c2)c1` [compound 221, 3-(3-furyl)-6-(2-thienyl)-[1,2,4]triazolo[4,3-a]pyridine] had an Emax of 50 to 100%.

`O=C(NC1CC1)c1ccc(-c2cn3c(-c4ccccc4)cnc3cn2)cc1` [compound 299, N-cyclopropyl-4-(3-phenylimidazo[1,2-a]pyrazin-6-yl)benzamide] gave a maximal effect (Emax) of 20 to 50%.

In turn, `COc1cc(-c2nnc3ccc(-c4ccc(N5CCN(C)CC5)cc4)cn23)ccc1O` [compound 215, 2-methoxy-4-[6-[4-(4-methylpiperazin-1-yl)phenyl]-[1,2,4]triazolo[4,3-a]pyridin-3-yl]phenol] registered an Emax of 20 to 50%.

For the compound `OCc1cccc(-c2cnc3cnc(-c4cccs4)cn23)c1` [compound 379, [3-[6-(2-thienyl)imidazo[1,2-a]pyrazin-3-yl]phenyl]methanol], the Emax fell in the range of 20 to 50%.

In turn, `O=C(NC1CC1)c1ccc(-c2cn3c(-c4ccc(O)cc4)cnc3cn2)cc1` [compound 326, N-cyclopropyl-4-[3-(4-hydroxyphenyl)imidazo[1,2-a]pyrazin-6-yl]benzamide] yielded a maximum response (Emax) of 20 to 50%.

In turn, `COc1ccc(-c2cn3c(-c4ccc(N(C)C)cc4)cnc3cn2)cn1` [compound 288, 4-[6-(6-methoxy-3-pyridyl)imidazo[1,2-a]pyrazin-3-yl]-N,N-dimethyl-aniline] showed an Emax of 50 to 100%.

Consider `COc1cccc(CC(=O)Nc2cnc3cnc(-c4ccc(Oc5ccccc5)cc4)cn23)c1` [compound 259, 2-(3-methoxyphenyl)-N-[6-(4-phenoxyphenyl)imidazo[1,2-a]pyrazin-3-yl]acetamide], for which the Emax was 10 to 20%.

In turn, `COc1ccc(CNc2ccc3ncc(-c4ccc(O)cc4)n3n2)cc1` [compound 36, 4-[6-[(4-methoxyphenyl)methylamino]imidazo[1,2-b]pyridazin-3-yl]phenol] registered an Emax of 20 to 50%.

Take `CN(C)CC#Cc1ccc2nnc(-c3ccccc3)n2c1` [compound 168, N,N-dimethyl-3-(3-phenyl-[1,2,4]triazolo[4,3-a]pyridin-6-yl)prop-2-yn-1-amine]: the Emax was in the range of 10 to 20%.
